# Test results as given in patent US5618726A, “Biodegradable azo dyes” (priority 1994, dated 1997).
# Legend:
# [1] = target: T1, horseradish peroxidase type II (Armoracia rusticana, UniProt P00433); test: Oxidation of azo dyes by horseradish peroxidase preparation; type: biochemical; settings: pH 8, 37° C., H2O2
# T1 sequence (P00433 31-338): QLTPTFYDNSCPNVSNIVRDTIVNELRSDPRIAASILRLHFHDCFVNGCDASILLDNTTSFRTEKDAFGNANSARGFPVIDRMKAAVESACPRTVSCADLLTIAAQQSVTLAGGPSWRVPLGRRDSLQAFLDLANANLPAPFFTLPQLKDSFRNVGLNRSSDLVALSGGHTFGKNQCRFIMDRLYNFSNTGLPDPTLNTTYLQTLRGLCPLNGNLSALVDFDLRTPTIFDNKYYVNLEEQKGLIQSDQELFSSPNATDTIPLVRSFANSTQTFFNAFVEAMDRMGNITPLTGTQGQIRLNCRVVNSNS
# Experimental: The reaction was started with the addition of 100 μl of 50 mM H2 O2 and was followed for 1 min at 37° C. Controls were run with no addition of H2 O2 or with the addition of the hemeperoxidase inhibitor KCN (final concentration 25 μM).
# [2] = test system: S. chromofuscus A11 extracellular peroxidase; test: Oxidation of azo dyes by S. chromofuscus A11 crude enzyme preparation; type: biochemical, Streptomyces chromofuscus A11; settings: pH 8, 37° C., H2O2
# Experimental: Environ. Microbiol., 1988, 54:3057-3063. […] Microbiol. Biotechnol., 34:661-667. Incubation took place at 37° C. with shaking at 250 rpm. The culture supernatant was collected after 48 h incubation, and vacuum-filtered through Whatman no. 1 filter paper. The filtrate was concentrated approximately 40- to 50-fold by ultrafiltration through an Amicon ultrafiltration stirred cell (series no. 8000, Amicon Corp.) with a disc PM-10 filter (diameter, 76 mm). Protein in the concentrated filtrate was then precipitated from solution with 80% ammonium sulfate. The precipitate was collected by centrifugation (15 min, 10,000 rpm). The pellet was resuspended in 10 ml of 20 mM HEPES buffer (pH 8) and dialyzed overnight against the same buffer at 4° C. These preparations were then stored in 1-ml aliquots at -20° C. until used. Before using, the preparation was filtered through a NAP-25 Sephadex G-25 disposable column (Pharmacia) in order to separate a yellowish protein fraction from a pink low-molecular-weight fraction. The yellowish fraction was used as the source of enzyme. […] The reaction was started with the addition of 100 μl of 50 mM H2 O2 and was followed for 1 min at 37° C. Controls were run with no addition of H2 O2 or with the addition of the hemeperoxidase inhibitor KCN (final concentration 25 μM).
# [3] = test system: Mn(II)-peroxidase; test: Oxidation of dyes by P. chrysosporium Mn(II)-peroxidase; type: biochemical, Phanerochaete chrysosporium; settings: crude enzyme, conditions specific for Mn(II)-peroxidase
# Experimental: (§1) The peroxidase assay was carried out using a composition having a final volume of 1.0 ml. The reaction mixture contained 250 μl of 100 mM HEPES buffer (pH 8), 500 μl of 10 mM 2,4-dichlorophenol, 100 μl of 1 mM aminoantipyrine, 50 μl enzyme preparation and 100 μl 50 mM H2 O2. The reaction was initiated by the addition of hydrogen peroxide at 37° C. One unit of peroxidase activity was expressed as the amount of enzyme required for an increase of one absorbance-unit-per-minute at 510 nm. Assays of manganese peroxidase and of ligninase from P. chrysosporium were carried out as previously described by Paszczynski et al in "Manganese peroxidase of Phanerochaete chrysosporium: Purification," Methods Enzymol. 161:264-270, incorporated herein by reference. […] Biophys., 1986, 44:750-765. Preparation and assay of ligninase and manganese peroxidase from these P. chrysosporium cultures were carried out as previously reported by Paszczynski, et al., Methods Enzymol., 1988, 161:264-270. […] Purification," Methods Enzymol. 161:264-270. […] Cycle time was 10 seconds, with the last measure after three minutes of incubation.
# [4] = test system: ligninase; test: Oxidation of dyes by P. chrysosporium ligninase (crude preparation); type: biochemical, Phanerochaete chrysosporium; settings: crude enzyme, conditions specific for ligninase
# Experimental: as §1, with “30 seconds” for “10 seconds,”, “15 minutes. […] The reaction conditions were the same as for acid yellow 9. No decolorization” for “three minutes”, “the synthesized dyes by ligninase was detected.” for “incubation.”
# [5] = test system: Phanerochaete chrysosporium; test: Substrate removal / decolorization by P. chrysosporium culture; type: cell-based; settings: for % Decolorization, P. chrysosporium: 14 days
# Experimental: Environ. Microbiol., 1981, 42:290-296), with the addition of 75 mg adenine (6-aminopurine) and 27 mg L-phenylalanine-per-liter. This addition accelerated the growth of the fungus without inhibiting ligninase activity. […] […] Cultures were incubated at 37° C. for 7 to 15 days with shaking (250 rpm). Solid agar media were also employed.
# [6] = beginning concentration 100 ppm
# [7] = beginning concentration 150 ppm
# [8] = beginning concentration 200 ppm
# [9] = beginning concentration 300 ppm
"Oxidation rate of azo dyes, Horseradish peroxidase [1] [μmoles per minute per ml]","Oxidation rate of azo dyes, S. chromofuscus peroxidase [2] [μmoles per minute per ml]","Oxidation rate of azo dyes, P. chrysosporium Mn-peroxidase [3] [μmoles per minute per ml]","Oxidation rate of azo dyes, P. chrysosporium Ligninase [4] [μmoles per minute per ml]","% Decolorization, P. chrysosporium ([5]; initial concn 150 ppm) [%]","% Decolorization, P. chrysosporium ([5]; initial concn 300 ppm) [%]",Structure (SMILES),"Concentration of substrate after ten days cultivation with P. chrysosporium [5, 6] [ppm]","Concentration of substrate after ten days cultivation with P. chrysosporium [5, 7] [ppm]","Concentration of substrate after ten days cultivation with P. chrysosporium [5, 8] [ppm]","Concentration of substrate after ten days cultivation with P. chrysosporium [5, 9] [ppm]"
0.07,0.10,0.15,0.32,93,94,CN(C)c1ccc(N=Nc2ccc(S(=O)(=O)O)cc2)cc1 [compound 14],4.411,11.843,15.529,36.800
0.17,0.15,0.00,11.61,86,93,O=S(=O)(O)c1ccc(N=Nc2cc(F)c(O)c(F)c2)cc1 [compound 12],2.368,44.227,6.160,198.240
0.40,0.00,0.59,1.58,85,80,Nc1ccc(N=Nc2ccc(S(=O)(=O)O)cc2)cc1 [compound 30],,,,
0.06,0.06,0.00,0.25,61,55,COc1ccc(N=Nc2ccc(S(=O)(=O)O)cc2)cc1 [compound 16],67.801,92.683,179.300,219.079
0.08,0.35,0.10,2.06,93,87,O=S(=O)(O)c1ccc2c(N=Nc3ccccc3)c(O)ccc2c1 [compound 19],,2.938,,252.592
0.07,0.14,0.32,0.49,27,49,Cc1ccc(O)c(N=Nc2ccc(S(=O)(=O)O)cc2)c1 [compound 8],16.079,28.401,29.704,135.680
0.34,0.19,0.11,1.35,81,55,Cc1cc(O)c(N=Nc2ccc(S(=O)(=O)O)cc2)cc1C [compound 7],62.893,41.044,10.200,246.044
0.47,0.42,0.02,0.45,72,18,O=S(=O)(O)c1ccc(N=Nc2ccc(O)cc2)cc1 [compound 6],12.909,14.003,33.309,39.326
0.32,0.50,0.72,1.03,79,74,COc1ccc(N=Nc2ccc(S(=O)(=O)O)cc2)cc1OC [compound 17],29.803,58.942,93.250,136.057
0.52,0.09,0.47,1.18,,,O=S(=O)(O)c1ccc(N=Nc2c(O)ccc3ccccc23)cc1 [compound 31],,,,
